What was measured:
[1] = tested on: normal NK cells expanded with K562-aAPC; assay: drug sensitivity score (DSS) (DSS units); higher = more sensitive; extreme values may be limits of the assay; conditions: 72 h; IL-2 2.5 ng/mL
Description: (§1)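 Drug sensitivity and resistance testing on K562-aAPC-expanded normal NK cells: 5 concentrations (10-fold steps over a 10,000-fold range), 72 h at 37 °C, viability by CellTiter-Glo normalised to DMSO and benzethonium chloride controls; DSS from the fitted curve.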

[2] = tested on: normal NK cells expanded with K562-aAPC; assay: percent inhibition of viability; higher = more inhibition; conditions: 72 h, IL-2 2.5 ng/mL
Description: as §1

DERL-7 (IL-2 2.5 ng/mL) [3] = assay: as above; conditions: 72 h
NKL (IL-2 2.5 ng/mL) [4] = assay: as above; conditions: 72 h
[5] = tested on: normal primary NK cells, pool 2 (3 donors) (IL-2 2.5 ng/mL); assay: as above; conditions: 72 h
SNK-6 (IL-2 2.5 ng/mL) [6] = assay: as above; conditions: 72 h
KAI3 (IL-2 2.5 ng/mL) [7] = assay: as above; conditions: 72 h
[8] = tested on: normal primary NK cells, pool 3 (3 donors) (IL-2 2.5 ng/mL); assay: as above; conditions: 72 h
YT (IL-2 2.5 ng/mL) [9] = assay: as above; conditions: 72 h
IMC-1 (IL-2 20 ng/mL) [10] = assay: as above; conditions: 72 h
NK-92 (IL-2 2.5 ng/mL) [11] = assay: as above; conditions: 72 h
[12] = tested on: normal primary NK cells, pool 1 (3 donors) (IL-2 2.5 ng/mL); assay: as above; conditions: 72 h
KHYG-1 (IL-2 2.5 ng/mL) [13] = assay: as above; conditions: 72 h
[14] = tested on: normal primary NK cells, pool 1 (3 donors), resting (IL-2 0 ng/mL); assay: as above; conditions: 72 h
NK-YS (IL-2 2.5 ng/mL) [15] = assay: as above; conditions: 72 h
DERL-7 (IL-2 2.5 ng/mL) [16] = assay: drug sensitivity score (DSS) (DSS units); higher = more sensitive; extreme values may be limits of the assay; conditions: 72 h
NKL (IL-2 2.5 ng/mL) [17] = assay: as above; conditions: 72 h
[18] = tested on: normal primary NK cells, pool 2 (3 donors) (IL-2 2.5 ng/mL); assay: as above; conditions: 72 h
SNK-6 (IL-2 2.5 ng/mL) [19] = assay: as above; conditions: 72 h
KAI3 (IL-2 2.5 ng/mL) [20] = assay: as above; conditions: 72 h
[21] = tested on: normal primary NK cells, pool 3 (3 donors) (IL-2 2.5 ng/mL); assay: as above; conditions: 72 h
YT (IL-2 2.5 ng/mL) [22] = assay: as above; conditions: 72 h
IMC-1 (IL-2 20 ng/mL) [23] = assay: as above; conditions: 72 h
NK-92 (IL-2 2.5 ng/mL) [24] = assay: as above; conditions: 72 h
[25] = tested on: normal primary NK cells, pool 1 (3 donors) (IL-2 2.5 ng/mL); assay: as above; conditions: 72 h
KHYG-1 (IL-2 2.5 ng/mL) [26] = assay: as above; conditions: 72 h
[27] = tested on: normal primary NK cells, pool 1 (3 donors), resting (IL-2 0 ng/mL); assay: as above; conditions: 72 h
NK-YS (IL-2 2.5 ng/mL) [28] = assay: as above; conditions: 72 h

C[C@@H](C(=O)O)c1ccc(-c2ccccc2)c(F)c1 [Tarenflurbil] (max concentration tested 10000 nM)
Conditions | drug sensitivity score
DERL-7 (IL-2 2.5 ng/mL) [16] | 0
IMC-1 (IL-2 20 ng/mL) [23] | 0
KAI3 (IL-2 2.5 ng/mL) [20] | 1.72
KHYG-1 (IL-2 2.5 ng/mL) [26] | 0
NK-92 (IL-2 2.5 ng/mL) [24] | 2.36
NK-YS (IL-2 2.5 ng/mL) [28] | 0.07
NKL (IL-2 2.5 ng/mL) [17] | 5.13
SNK-6 (IL-2 2.5 ng/mL) [19] | 0.04
YT (IL-2 2.5 ng/mL) [22] | 0.47
[1] | 0
[18] | 0
[21] | 0
[25] | 0
[27] | 0.07

percent inhibition of viability [%]
Conditions | 1 nM | 10 nM | 100 nM | 1000 nM | 10000 nM
DERL-7 (IL-2 2.5 ng/mL) [3] | 4.46 | 2.02 | -0.14 | 2.03 | -3.24
IMC-1 (IL-2 20 ng/mL) [10] | -1.05 | 0.62 | -1.4 | -6.55 | 2.74
KAI3 (IL-2 2.5 ng/mL) [7] | -7.87 | -7.47 | 3.52 | 11.2 | 23.6
KHYG-1 (IL-2 2.5 ng/mL) [13] | -3.32 | -5.74 | 0.55 | -0.63 | 6.21
NK-92 (IL-2 2.5 ng/mL) [11] | -0.98 | -4.75 | -2.63 | 14.7 | 23.1
NK-YS (IL-2 2.5 ng/mL) [15] | -4.2 | -2.88 | 4.93 | 1.37 | 11.5
NKL (IL-2 2.5 ng/mL) [4] | -0.03 | -4.97 | 19.8 | 21.7 | 16.2
SNK-6 (IL-2 2.5 ng/mL) [6] | -1.12 | -28.7 | -23.7 | -16.9 | 14.1
YT (IL-2 2.5 ng/mL) [9] | -2.12 | -10.1 | 2.14 | 4.49 | 14.9
[2] | -6.17 | -4.88 | -3.95 | 0.95 | 3.26
[5] | -7.01 | 3.47 | 9.98 | 6.83 | 1.08
[8] | -14.1 | -0.87 | -2.01 | -2.07 | 2.43
[12] | 2 | 12.8 | 9.24 | 3.23 | 7.48
[14] | -0.07 | 18.2 | 4.52 | 11.8 | 8.75

CN[C@@H](C)C(=O)N[C@H](C(=O)N1CCC[C@H]1c1nc(C(=O)c2ccc(F)cc2)cs1)C1CCCCC1 [LCL161] (max concentration tested 25000 nM)
Conditions | drug sensitivity score
DERL-7 (IL-2 2.5 ng/mL) [16] | 8.62
IMC-1 (IL-2 20 ng/mL) [23] | 1.5
KAI3 (IL-2 2.5 ng/mL) [20] | 7.35
KHYG-1 (IL-2 2.5 ng/mL) [26] | 21.5
NK-92 (IL-2 2.5 ng/mL) [24] | 9.07
NK-YS (IL-2 2.5 ng/mL) [28] | 0.39
NKL (IL-2 2.5 ng/mL) [17] | 3.42
SNK-6 (IL-2 2.5 ng/mL) [19] | 1.99
YT (IL-2 2.5 ng/mL) [22] | 4.58
[1] | 10.4
[18] | 13.6
[21] | 12
[25] | 14
[27] | 10.4

percent inhibition of viability [%]
Conditions | 2.5 nM | 25 nM | 250 nM | 2500 nM | 25000 nM
DERL-7 (IL-2 2.5 ng/mL) [3] | 3.1 | 13 | 11.3 | 36.6 | 64.2
IMC-1 (IL-2 20 ng/mL) [10] | -0.09 | 4.35 | 9.97 | 0.82 | 31.3
KAI3 (IL-2 2.5 ng/mL) [7] | -3.88 | -6.89 | -0.05 | 26.9 | 67.2
KHYG-1 (IL-2 2.5 ng/mL) [13] | -3.69 | -2.27 | 43.7 | 87.9 | 86.8
NK-92 (IL-2 2.5 ng/mL) [11] | -9.41 | 4.44 | 14.3 | 35.9 | 87.5
NK-YS (IL-2 2.5 ng/mL) [15] | -6.78 | -9.82 | -8.28 | -8.9 | 20.8
NKL (IL-2 2.5 ng/mL) [4] | -0.58 | 12.2 | 1.43 | 5.86 | 46.8
SNK-6 (IL-2 2.5 ng/mL) [6] | 9.58 | 4.06 | -3.23 | -1.7 | 42.3
YT (IL-2 2.5 ng/mL) [9] | 4.24 | 0.05 | 5.12 | 15.8 | 49.9
[2] | 3.9 | 9.45 | 17.1 | 42 | 71.6
[5] | -10.3 | 4.59 | 24.6 | 55.9 | 80.5
[8] | -5.71 | 1.98 | 19.5 | 51.1 | 75.2
[12] | -2.53 | -6.03 | 25.8 | 58 | 91
[14] | -36.7 | -17.7 | -2.19 | 43.8 | 88.3

C=CCN(/C=C1/C(=O)O[C@H](COC)[C@@]2(C)C1=C(O)C(=O)C1=C2[C@H](OC(C)=O)C[C@]2(C)C(=O)CC[C@@H]12)CC=C [Sonolisib] (max concentration tested 10000 nM)
Conditions | drug sensitivity score
DERL-7 (IL-2 2.5 ng/mL) [16] | 1.49
IMC-1 (IL-2 20 ng/mL) [23] | 0
KAI3 (IL-2 2.5 ng/mL) [20] | 2.98
KHYG-1 (IL-2 2.5 ng/mL) [26] | 0.5
NK-92 (IL-2 2.5 ng/mL) [24] | 4.58
NK-YS (IL-2 2.5 ng/mL) [28] | 2.85
NKL (IL-2 2.5 ng/mL) [17] | 3.66
SNK-6 (IL-2 2.5 ng/mL) [19] | 0.79
YT (IL-2 2.5 ng/mL) [22] | 1.45
[1] | 1.91
[18] | 3.83
[21] | 2.06
[25] | 5.59
[27] | 5.24

percent inhibition of viability [%]
Conditions | 1 nM | 10 nM | 100 nM | 1000 nM | 10000 nM
DERL-7 (IL-2 2.5 ng/mL) [3] | 4.44 | 0.05 | 7.66 | 7.97 | 25.7
IMC-1 (IL-2 20 ng/mL) [10] | -9.13 | -2.03 | -1.28 | -0.72 | 6.3
KAI3 (IL-2 2.5 ng/mL) [7] | -2.28 | -8.79 | -2.59 | 6.95 | 37.8
KHYG-1 (IL-2 2.5 ng/mL) [13] | -3.26 | -9.75 | -5.87 | -0.67 | 19.3
NK-92 (IL-2 2.5 ng/mL) [11] | -0.51 | -6.14 | 4.9 | 21.8 | 43.3
NK-YS (IL-2 2.5 ng/mL) [15] | -0.83 | -2.4 | -0.43 | 13.8 | 28.2
NKL (IL-2 2.5 ng/mL) [4] | -7.87 | -4.63 | -1.36 | 21.9 | 28.6
SNK-6 (IL-2 2.5 ng/mL) [6] | -13.7 | -20.8 | -21.5 | -12.3 | 28.8
YT (IL-2 2.5 ng/mL) [9] | -3.75 | -4.21 | -0.91 | 9.17 | 19.1
[2] | -4.81 | -6.86 | -3.23 | 3.22 | 31.4
[5] | -5.83 | 0.64 | 8.59 | 17.3 | 40.2
[8] | -11.6 | 9.95 | 14.7 | 4.05 | 31.2
[12] | -5.92 | 11.5 | 7.17 | 23.3 | 57
[14] | -7.82 | 8.6 | 11.1 | 16.4 | 59.7
